This note sets out measurements from patent publication US9745328B2, “Flap modulators” (JANSSEN PHARMACEUTICA NV, priority 2013, dated 2017).

The structures appear in SMILES notation. pKi: −log10 of the molar value. Where a name gives a salt, the structure may show the parent alone.

Chain of human FLAP (P20292 whole entry): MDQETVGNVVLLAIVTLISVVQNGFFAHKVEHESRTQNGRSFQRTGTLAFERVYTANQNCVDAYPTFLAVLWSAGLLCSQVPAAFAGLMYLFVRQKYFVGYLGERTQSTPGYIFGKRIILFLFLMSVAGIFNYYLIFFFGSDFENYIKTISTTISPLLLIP

The first experiment concerns the target human FLAP (Homo sapiens (Human), UniProt P20292). In words: FLAP binding assay (HTRF format). Particulars: Table 5, human FLAP wild type. The method, then: The ability of the compounds of the present invention to treat a FLAP-mediated disease and/or disorder, or associated symptoms or complications thereof, was determined using the following procedures. Binding assay data represent the average value obtained from two different assay plates, with samples run in duplicate on each plate. Human whole blood assay data represent a single replicate on an assay plate using whole blood from at least one healthy donor.
Data are expressed as a HTRF ratio.
(In TR-FRET formats the signal depends on donor and acceptor labels being close together.)
Broadly, the pKi is −log10 of the Ki, conventionally taken in molar units. A higher pKi goes with a small Ki. `Nc1cnc(-c2ccc(-c3cccnc3S(=O)(=O)C3CCNC3)cc2F)cn1` (racemic) [Example 803, 5-(2-Fluoro-4-(2-(pyrrolidin-3-ylsulfonyl)pyridin-3-yl)phenyl)pyrazin-2-amine hydrochloride] had a pKi of 6.97.

Still in this experiment, the particulars now being: Table 6 (additional runs), human FLAP wild type.
Regarding `CC(C)CS(=O)(=O)c1ccccc1-c1ccc(-c2cnc(N)cn2)c(F)c1` [Example 193, 5-{3-Fluoro-2′-[(2-methylpropyl)sulfonyyl]iphenyl-4-yl}pyrazin-2-amine], the pKi was 7.51.

`C[C@H](NS(=O)(=O)c1ccccc1-c1ccc(-c2cnc(N)cn2)c(F)c1)C(O)c1ccccc1` (stereo in doubt) [Example 83, 4′-(5-Aminopyrazin-2-yl)-3′-fluoro-N-[(1S,2R)-2-hydroxy-1-methyl-2-phenylethyl]biphenyl-2-sulfonamide] had a pKi of 9.15. Still for that read-out and setting: to `O=S(=O)(c1ccccc1-c1ccc(-c2cnc3c(c2)OCCN3)c(F)c1)N1CCCCC1` [Example 386, 7-[3-Fluoro-2′-(piperidin-1-ylsulfonyl)biphenyl-4-yl]-3,4-dihydro-2H-pyrido[3,2-b][1,4]oxazine] belongs 8.74; to `Nc1cnc(-c2ccc(-c3ccccc3Sc3cnccn3)cc2F)cn1` [Example 218, 5-[3-Fluoro-2′-(pyrazin-2-ylsulfanyl)biphenyl-4-yl]pyrazin-2′ amine hydrochloride], 8.48; to `C[C@@H](O)CNS(=O)(=O)Cc1ccccc1-c1ccc(-c2cnc(N)cn2)c(F)c1` [Example 228, (R)-1-[4′-(5-Aminopyrazin-2-yl)-3′-fluorobiphenyl-2-yl]-N-[(2S)-2-hydroxypropyl]methanesulfonamide], 5.98. `Nc1cnc(-c2ccc(-c3ccccc3S(=O)(=O)N3CCN4CCCC4C3)cc2F)cn1` (racemic) [Example 61, racemic 5-[3-Fluoro-2′-(hexahydropyrrolo[1,2-a]pyrazin-2(1H)-ylsulfonyl)biphenyl-4-yl]pyrazin-2-amine] had a pKi of 7.80.

With `Nc1cnc(-c2ccc(-c3ccccc3S(=O)(=O)NC3CC4CCC3C4)cc2F)cn1` (racemic) [Example 10, (racemic)-(endo)-4′-(5-Aminopyrazin-2-yl)-N-bicyclo[2.2.1]hept-2-yl-3′-fluorobiphenyl-2-sulfonamide racemic], the pKi was 8.57. On to `CNS(=O)(=O)c1ccccc1-c1ccc(-c2cnc3[nH]ccc3n2)c(F)c1` [Example 379, 3′-Fluoro-N-methyl-4′-(5H-pyrrolo[2,3-b]pyrazin-2-yl)biphenyl-2-sulfonamide], for which the pKi was 8.89. Same read-out and setting: under `CCCS(=O)(=O)c1ccccc1-c1ccc(-c2cnc(N)cn2)c(F)c1` [Example 192, 5-[3-Fluoro-2′-(propylsulfonyl)biphenyl-4-yl]pyrazin-2-amine] stands 7.32.

For the compound `Nc1cnc(-c2ccc(-c3ccccc3S(=O)(=O)N(CCO)C3CCCCC3)cc2F)cn1` [Example 136, 4′-(5-Aminopyrazin-2-yl)-N-cyclohexyl-3′-fluoro-N-(2-hydroxyethyl)biphenyl-2-sulfonamide], the pKi is 9.30. `Nc1cnc(-c2ccc(-c3ccccc3NS(=O)(=O)C(F)(F)F)cc2F)cn1` [Example 41, N-[4′-(5-Aminopyrazin-2-yl)-3′-fluorobiphenyl-2-yl]-1,1,1-trifluoromethanesulfonamide] showed a pKi of 7.97. Still for that read-out and setting: under `Nc1ccc(-c2ccc(-c3ccccc3S(=O)(=O)NC3CCCCC3)cc2F)cn1` [Example 346, 4′-(6-Aminopyridin-3-yl)-N-cyclohexyl-3′-fluoro-[1,1′-biphenyl]-2-sulfonamide] stands 8.35. On the same count and under the same terms, to `Nc1cnc(-c2ccc(-c3ccccc3S(=O)(=O)N3CCC(c4c[nH]cn4)CC3)cc2F)cn1` [Example 164, 5-(3-Fluoro-2′-{[4-(1H-imidazol-4′-yl)piperidin-1-yl]sulfonyl}biphenyl-4-yl)pyrazin-2-amine] belongs 9.10; to `CC[C@@H](CO)NS(=O)(=O)c1ccccc1-c1ccc(-c2cnc(N)cn2)c(F)c1` [Example 153, (S)-4′-(5-aminopyrazin-2-yl)-3′-fluoro-N-(1-hydroxybutan-2-yl)-[1,1′-biphenyl]-2-suifonamide], 8.60; to `CCN1CCCC[C@@H](NS(=O)(=O)c2ccccc2-c2ccc(-c3cnc(N)cn3)c(F)c2)C1=O` [Example 27], 7.58.

Regarding `CC(C)(O)CNS(=O)(=O)c1ccccc1-c1ccc(-c2cnc(N)nc2)c(F)c1` [Example 272, 4′-(2-Aminopyrimidin-5-y)-3′-fluoro-N-(2-hydroxy-2-methylpropyl)biphenyl-2-sulfonamide trifluoroacetic acid salt], the pKi was 7.57. Same read-out and setting: under `Nc1cnc(-c2ccc(-c3ccccc3S(=O)(=O)NC3CC3)cc2F)cn1` [Example 89, 4′-(5-Aminopyrazin-2-yl)-N-cyclopropyl-3′-fluoroblphenyl-2-sulfonamide] stands 8.31; under `Nc1cnc(-c2ccc(-c3ccccc3S(=O)(=O)N3CCC(CCO)CC3)cc2F)cn1` [Example 69, 2-(1-{[4′-(5-Aminopyrazin-2-yl)-3′-fluorobiphenyl-2-yl]sulfonyl}piperidin-4-yl)ethanol], 9.05. On the same count and under the same terms, under `Nc1cnc(-c2ccc(-c3ccccc3S(=O)(=O)N(C3CCOCC3)C3CC3)cc2F)cn1` [Example 140, 4′-(5-Aminopyrazin-2-yl)-N-cyclopropyl-3′-fluoro-N-(tetrahydro-2H-pyran-4-yl)biphenyl-2-sulfonamide] stands 8.85; under `N#CCCN(C1CC1)S(=O)(=O)c1ccccc1-c1ccc(-c2cnc(N)cn2)c(F)c1` [Example 172, 4′-(5-Aminopyrazin-2-yl)-N-(2-cyanoethyl)-N-cyclopropyl-3′-fluorobiphenyl-2-suifonamide], 8.44.

Regarding `C[C@H](CO)NS(=O)(=O)c1ccccc1-c1ccc(-c2cnc3[nH]ccc3c2)c(F)c1` [Example 363, 3′-Fluoro-N-[(1R)-2-hydroxy-1-methylethyl]-4′-(1H-pyrrolo[2,3-b]pyridin-5-yl)biphenyl-2-sulfonamide], the pKi is 9.22. `Nc1cnc(-c2ccc(-c3ccccc3S(=O)(=O)N[C@@H]3CCc4ccccc43)cc2F)cn1` [Example 23, (R)-4′-(5-Aminopyrazin-2-yl|)-N-[(1R)-2,3-dihydro-1H-inden-1-yl]-3′-fluorobiphenyl-2-sulfonamide] had a pKi of 8.92. For `CC(C)(C)NS(=O)(=O)c1ccccc1-c1ccc(-c2ccc(N)nc2)c(F)c1` [Example 342], the pKi was 8.74.

Staying with this experiment, now noted: human FLAP wild type, Table 6 (additional runs).
With `Nc1cnc(-c2ccc(-c3ccc(C(F)(F)F)cc3Oc3ccnc(N)n3)cc2F)cn1` [Example 555, 4-{[4′-(5-Aminopyrazin-2-yl)-3′-fluoro-4-(trifluoromethyl)biphenyl-2-yl]oxy}pyrimidin-2-amine], the pKi is 8.80. Same read-out and setting: under `CC(C)(C)NS(=O)(=O)c1ccccc1-c1ccc(-c2ccc3[nH]ccc3c2)c(F)c1` [Example 421, N-tert-Butyl-3′-fluoro-4′-(1H-indol-5-yl)biphenyl-2-sulfonamide] stands 7.55; under `Nc1nc(-c2ccc(-c3ccccc3S(=O)(=O)N3CCCC3)cc2F)cs1` [Example 579, 4-[3-Fluoro-2′-(pyrrolidin-1-ylsulfonyl)biphenyl-4-yl]-1,3-thiazol-2-amine], 7.02; under `CC(CO)NS(=O)(=O)c1ccccc1-c1ccc(-c2cnc(N)c(C#N)n2)c(F)c1` (stereo in doubt) [Example 410, 4′-(5-amino-6-cyanopyrazin-2-yl)-3′-fluoro-N-[(1R)-2-hydroxy-1-methylethypiphenyl-2-sulfonamide], 8.43.

For `CC(C)(C)NS(=O)(=O)c1ccccc1-c1ccc(-c2cnc3cc[nH]c3c2)c(F)c1` [Example 425, N-tert-Butyl-3′-fluoro-4′-(1H-pyrrolo[3,2-b]pyridin-6-yl)biphenyl-2-sulfonamide], the pKi was 8.64. Same read-out and setting: under `Nc1nccc(Oc2ccccc2-c2ccc(-c3cnc4[nH]ccc4c3)c(F)c2)n1` [Example 523, 4-{[3′-Fluoro-4′-(1H-pyrrolo[2,3-b]pyridin-5-yl)biphenyl-2-yl]oxy}pyrimidin-2-amine] stands 8.89; under `N#Cc1cccnc1COc1ccccc1-c1ccc(-c2cnc(N)cn2)c(F)c1` [Example 531, 2-({[4′-(5-Aminopyrazin-2-yl)-3′-fluorobiphenyl-2-yl]oxy}methyl)pyridine-3-carbonitrile], 8.07. On the same count and under the same terms, to `Nc1cnc(-c2ccc(-c3ccccc3C(F)(F)F)cc2F)cn1` [Example 472, 5-[3-Fluoro-2′-(trifluoromethyl)biphenyl-4-yl]pyrazin-2-amine] belongs 6.87; to `N#Cc1ccccc1-c1ccc(-c2cnc(N)cn2)c(F)c1` [Example 701, 4′-(5-Aminopyrazin-2-yl)-3′-fluorobiphenyl-2-carbonitrile], 6.88.

Take `N#Cc1nc(-c2ccc(-c3ccccc3S(=O)(=O)NCCO)cc2F)cnc1N` [Example 413, 4′-(5-Amino-6-cyanopyrazin-2-yl)-3′-fluoro-N-(2-hydroxyethyl)biphenyl-2-sulfonamide]: the pKi was 7.73. Compared with the last compound, the pKi is 0.85 log units higher. Same read-out and setting: under `Nc1cnc(-c2ccc(-c3cccnc3S(=O)(=O)C3CCNC3)cc2F)cn1` (racemic) [Example 803, 5-(2-Fluoro-4-(2-(pyrrolidin-3-ylsulfonyl)pyridin-3-yl)phenyl)pyrazin-2-amine hydrochloride] stands 6.97.

`Nc1cnc(-c2ccc(-c3ccccc3OCC(=O)O)cc2F)cn1` [Example 481, {[4′-(5-Aminopyrazin-2-yl)-3′-fluorobiphenyl-2-yl]oxy}acetic acid] had a negative-log Ki (pKi) of 5.72. Still for that read-out and setting: to `CC(C)(C)NS(=O)(=O)c1ccccc1-c1ccc(-c2cnc(N)cn2)cc1F` [Example 574, 4′-(5-Aminopyrazin-2-yl)-N-tert-butyl-2′-fluorobiphenyl-sultonamide] belongs 7.86; to `Nc1cc(-c2ccc(-c3ccccc3S(=O)(=O)NC3(CO)CCCC3)cc2F)cc2cc[nH]c12` [Example 456, 4′-(7-Amino-1H-indol-5-yl)-3′-fluoro-N-[1-(hydroxymethyl)cyclopentyl]biphenyl-2-sulfonamide], 8.59.
